According to patent US7833795B2, “Assessment of cardiovascular risk using isoprostane biomarkers and COX-2 selective inhibitors” (The Trustees of the University of Pennsylvania, priority 2004, dated 2010):

Test system: Male Fisher 344 rats
Test: Plasma lipid hydroperoxides (LPO assay kit) after CCl4
Assay type: in vivo, rat
Conditions: for LOOH (by LPO assay kit): plasma
Description: Animals and treatment protocol: Male Fisher 344 rats (260-280 g) obtained from Charles River Laboratories (Raleigh, N.C.) were used in all experiments. The animals were housed three to a cage. Autoclaved hardwood bedding was used in solid-bottom polycarbonate cages with filter tops. Animal rooms were maintained at 20-25° C. with 35-70% relative humidity with alternating 12-hour light and dark cycles. The rats had free access to deionized, reverse-osmosis-treated water and received autoclaved NIH 31 rodent chow (Zeigler Bros., Gardners, Pa.) ad libitum. For all experiments, rats were fasted overnight and then administered intraperitoneal injections of carbon tetrachloride in canola oil. Control rats received an equal volume of canola oil. Fasting continued throughout the experiment. Rats were anesthetized with Nembutal (0.1 ml/100 g body weight) and 5 ml blood was removed from the dorsal aorta proximal to its bifurcation into the common iliac arteries.
Carbon tetrachloride (CCL4) treatment: Animals from each of the three dose groups (Control-canola oil, 120 mg/kg CCl4 i.p. and 1200 mg/kg CCl4 i.p.) were investigated at three time points (2, 7, and 16 hours after CCl4 injection). Indomethacin-pretreated rats were also investigated at the same three time points, and the meclofenamic acid-pretreated rats were investigated at one time point (7 hours). Each group consisted of five rats for each analysis, except the meclofenamic acid pretreatment group which consisted of six rats. Animal treatment, sample preparation, assessment of liver histology and serum enzyme activities are described elsewhere (Kadiiska et al., 2000, Free Radic. Biol. Med. 28: 838-845; Jackson, 1989, J. Pharmacol. Exp. Ther. 250: 9-21) and were carried out at NIEHS, Research Triangle Park, N.C.
Plasma sample preparation: Blood (5 ml) was drawn through single draw Vacutainer® needles (21 Gauge) into open Vacutainer® blood collection tubes containing heparin. The tubes were gently inverted 2-3 times for mixing and immediately placed on ice. Blood was centrifuged (2,000 rpm for 10 minutes at 4° C.) no more than 30 minutes after collection, and the plasma was collected, frozen on dry ice and stored at −70° C.
Two assays were used to measure the effect of CCl4 on lipid hydroperoxides. A lipid hydroperoxide assay kit (Catalog No. 705002) from Cayman Chemical Company (Ann Arbor, Mich.) was used to measure hydroperoxides directly, utilizing the redox reaction with ferrous ion. Hydroperoxides were extracted into chloroform and reacted with ferrous ions to produce ferric ions. The resulting ferric ions were detected using thiocyanate ion as the chromogen. The hydroperoxide concentration was determined based on the absorption at 504 nm using a Beckman DU-7 spectrophotometer at room temperature. The experiments were performed at National Institute of Environmental Health Sciences (NIEHS), Research Triangle Park, N.C.

Compound: ClC(Cl)(Cl)Cl [CCl4, Carbon tetrachloride]
- LOOH (by LPO assay kit) (CCl4 120 mg/kg i.p., 2 h): 0.96 µM
- LOOH (by LPO assay kit) (CCl4 120 mg/kg i.p., 7 h): 1.20 µM
- LOOH (by LPO assay kit) (CCl4 120 mg/kg i.p., 16 h): 1.60 µM
- LOOH (by LPO assay kit) (CCl4 1200 mg/kg i.p., 2 h): 1.42 µM
- LOOH (by LPO assay kit) (CCl4 1200 mg/kg i.p., 7 h): 1.35 µM
- LOOH (by LPO assay kit) (CCl4 1200 mg/kg i.p., 16 h): 1.64 µM
- increase of lipid hydroperoxides compared to controls (kit) (high dose CCl4, 2 hour): 3 fold
